Data reported in ChEMBL document CHEMBL1128683, “Identification of 3,5-dihydro-2-aryl-1H-pyrazolo[3,4-c]quinoline-1,4(2H)-diones as novel high-affinity glycine site N-methyl-D-aspartate antagonists” (J Med Chem, 1995).

molecular target: Glutamate receptor ionotropic, NMDA 1 (Rattus norvegicus, UniProt P35439); assay: Inhibition of [3H]-3 binding to the glycine site on the NMDA receptor in Rat cortical membranes

Going from `O=c1[nH]c2ccccc2c2c(=O)n(-c3ccccc3Cl)[nH]c12` to `O=c1[nH]c2ccccc2c2c(=O)n(-c3ccccc3)[nH]c12`, the IC50 falls from 613 nM to 135 nM (4.5-fold).

Compared with `O=c1[nH]c2ccccc2c2c(=O)n(-c3ccc(Cl)cc3)[nH]c12`, `COc1ccc(-n2[nH]c3c(=O)[nH]c4ccccc4c3c2=O)cc1` is 1.6-fold lower in IC50: 138 nM for the first, 87 nM for the second.

Going from `COc1ccc(-n2[nH]c3c(=O)[nH]c4cc(Cl)ccc4c3c2=O)cc1` to `O=c1[nH]c2cc(Cl)ccc2c2c(=O)n(-c3ccccc3)[nH]c12`, the IC50 rises from 3.3 nM to 16 nM (4.8-fold).

Compared with `O=c1[nH]c2ccccc2c2c(=O)n(Cc3ccccc3)[nH]c12`, `O=c1[nH]c2ccccc2c2c(=O)n(-c3cccc(Cl)c3)[nH]c12` is 3.5-fold lower in IC50: 562 nM for the first, 162 nM for the second.

`Cn1[nH]c2c(=O)[nH]c3ccccc3c2c1=O` and `Cn1c2c(=O)[nH]c3ccccc3c2c(=O)n1-c1ccccc1` cannot be ordered by IC50: 2020 nM for the first, greater than 100 nM for the second.
